No end group written: not given here.
Assay: Body and organ weights of mice after myocardial I-R
Type: in vivo, mouse
Details: for Body Weight / Organ weight (mg), LV / Organ weight (mg), RV / Organ weight (mg), atria / Organ weight (mg), heart / Organ weight (mg), lung / Organ weight: body weight (mg/g), LV / Organ weight: body weight (mg/g), RV / Organ weight: body weight (mg/g), atria / Organ weight: body weight (mg/g), heart / Organ weight: body weight (mg/g), lung / Heart weight normalized to body weight versus sham / Effect on total heart weight and LV weight normalized to body weight: mice; for Body Weight (BW, g) / Organ weight: BW (mg/g), LV / Organ weight: BW (mg/g), RV / Organ weight: BW (mg/g), atria / Organ weight: BW (mg/g), heart / Organ weight: BW (mg/g), lung / BW: Table 7; for Heart weight normalized to body weight versus sham: 48 h reperfusion; for Effect on total heart weight and LV weight normalized to body weight: 7 days reperfusion
Description: Sample collection: After the study period (24 h, 48 h or 7 d), infarcted or sham-operated mice were euthanised, blood was collected by cardiac puncture using a 25G needle and 1 mL syringe coated with heparin (500 U/mL). Plasma was collected from mice after 24 h reperfusion to assess levels of cardiac troponin I (cTnI) levels; whole blood was collected from mice after 48 h reperfusion to assess total and differential white blood cell (WBC) numbers in the circulation. Lungs, atria, left and right ventricles were dissected, blotted dry, and weighed. Left ventricles (LV) were cut in half at the occlusion site, with the upper part fixed in Neutral Buffer Formalin (NBF, Thermo Fisher Scientific, Melbourne, Australia) and the apex placed in Tissue-Tek® optimal cutting temperature (OCT) compound (Tissue-Tek, Torrance, USA) for storage at −80° C.
Body and organ weights were measured to examine effects of drug treatments on systemic and cardiac characteristics in mice subjected to myocardial ischaemia-reperfusion injury or sham operation. Although there was no difference between the two vehicles (10% DMSO) in saline i.v. vs. 10% DMSO containing 0.8% Tween 20 in saline, i.p.), data from these two groups were combined for group analysis.
Assessment of cardiac inflammation in vivo: Lungs, atria, left and right ventricles from mice in Cohort 3 (following 60 min ischemia and 48 h reperfusion, optimal timing for detecting cardiac leukocyte infiltration) were dissected, blotted dry, and weighed. LV were cut in half at the occlusion site, and the apical half placed in Tissue-Tek® optimal cutting temperature compound (Tissue-Tek, Torrance, USA) for storage at −80° C. LV tissues were then sectioned at 6 μm for immunofluorescent detection of cardiac macrophage and neutrophil content. Sections were pre-incubated with 4% paraformaldehyde for 20 min and 10% normal goat serum for a further 30 min. Sections were then incubated at RT with either CD68+ primary antibody or Ly-6B.2 primary antibody (1:200, ABD Serotec, Raleigh, USA) for 1 h, followed by 30 min incubation with the Alexa Fluor 546 secondary antibody (1:200, Invitrogen, Carlsbad, USA). Finally, sections were incubated with 0.001% Hoechst 33342 (Invitrogen, Melbourne, Australia) for 30 min, to elicit nuclear staining. Single images were photographed using a Nikon A1R confocal microscope (Nikon Instruments Inc., NY, USA) under 20× magnification, and 9×9 single images were then automatically stitched together using NIS-Elements AR software (version 4.10 for Windows, Nikon Instruments Inc., NY, USA) to form each complete composite LV image. The images for infarct area were captured under 40× magnification, and the stitched images were then analyzed using Fiji software (version 1.48c for Max OS X, National Institutes of Health, USA). The threshold was set for each image, to enable optimal sensing and quantification of red fluorescence intensity above threshold, and the software then automatically quantified these red fluorescent signals.

Compound | Body Weight (Table 5, 48 h myocardial I-R) [g] | Organ weight (mg), LV (Table 5, 48 h myocardial I-R) [mg] | Organ weight (mg), RV (Table 5, 48 h myocardial I-R) [mg] | Organ weight (mg), atria (Table 5, 48 h myocardial I-R) [mg] | Organ weight (mg), heart (Table 5, 48 h myocardial I-R) [mg] | Organ weight (mg), lung (Table 5, 48 h myocardial I-R) [mg] | Organ weight: body weight (mg/g), LV (Table 5, 48 h myocardial I-R) [mg/g] | Organ weight: body weight (mg/g), RV (Table 5, 48 h myocardial I-R) [mg/g] | Organ weight: body weight (mg/g), atria (Table 5, 48 h myocardial I-R) [mg/g] | Organ weight: body weight (mg/g), heart (Table 5, 48 h myocardial I-R) [mg/g] | Organ weight: body weight (mg/g), lung (Table 5, 48 h myocardial I-R) [mg/g] | Body Weight (Table 6, 7 d myocardial I-R) [g] | Organ weight (mg), LV (Table 6, 7 d myocardial I-R) [mg] | Organ weight (mg), RV (Table 6, 7 d myocardial I-R) [mg] | Organ weight (mg), atria (Table 6, 7 d myocardial I-R) [mg] | Organ weight (mg), heart (Table 6, 7 d myocardial I-R) [mg] | Organ weight (mg), lung (Table 6, 7 d myocardial I-R) [mg] | Organ weight: body weight (mg/g), LV (Table 6, 7 d myocardial I-R) [mg/g] | Organ weight: body weight (mg/g), RV (Table 6, 7 d myocardial I-R) [mg/g] | Organ weight: body weight (mg/g), atria (Table 6, 7 d myocardial I-R) [mg/g] | also measured
COc1cccc(Cc2cc(C)nn(C(C)C(=O)Nc3ccc(Br)cc3)c2=O)c1 (stereo not drawn) [BIDI-001, N-(4-bromophenyl)-2-[5-(3-methoxybenzyl)-3-methyl-6-oxo-6H-pyridazin-1-yl]-propionamide] | 28.2 ± 1.0 | 105.0 ± 8.3 | 24.9 ± 3.1 | 14.6 ± 1.2 | 147 ± 11 | 157 ± 6 | 3.7 ± 0.2 | 1.0 ± 0.0 | 0.5 ± 0.0 | 5.2 ± 0.3 | 5.6 ± 0.2 | 24.3 ± 0.5 | 70.1 ± 2.9 | 19.0 ± 1.0 | 7.3 ± 0.8 | 96 ± 4 | 132 ± 3 | 2.9 ± 0.1 | 0.8 ± 0.3 | 0.3 ± 0.0 | Organ weight: body weight (mg/g), heart (Table 6, 7 d myocardial I-R): 4.0 ± 0.1 mg/g; Organ weight: body weight (mg/g), lung (Table 6, 7 d myocardial I-R): 4.7 ± 0.7 mg/g; Body Weight (BW, g) (48 h myocardial I-R): 28 ± 1 g; Organ weight: BW (mg/g), LV (48 h myocardial I-R): 3.7 ± 0.2 mg/g; Organ weight: BW (mg/g), RV (48 h myocardial I-R): 1.0 ± 0.0 mg/g; Organ weight: BW (mg/g), atria (48 h myocardial I-R): 0.5 ± 0.0 mg/g; Organ weight: BW (mg/g), heart (48 h myocardial I-R): 5.2 ± 0.3 mg/g; Organ weight: BW (mg/g), lung (48 h myocardial I-R): 5.6 ± 0.2 mg/g; BW (7 days myocardial I-R): 24 ± 1 g; Organ weight: BW (mg/g), LV (7 days myocardial I-R): 2.9 ± 0.1 mg/g; Organ weight: BW (mg/g), RV (7 days myocardial I-R): 0.8 ± 0.3 mg/g; Organ weight: BW (mg/g), atria (7 days myocardial I-R): 0.3 ± 0.0 mg/g; Organ weight: BW (mg/g), heart (7 days myocardial I-R): 4.0 ± 0.1 mg/g; Organ weight: BW (mg/g), lung (7 days myocardial I-R): 5.4 ± 0.1 mg/g; Heart weight normalized to body weight versus sham: significantly increased; Effect on total heart weight and LV weight normalized to body weight: significantly reduced
CC(C)C1C(NC(=O)Nc2ccc(Cl)cc2)C(=O)N(c2ccccc2)N1C (stereo not drawn) [BIDI-002] | 27 ± 0.6 | 94.9 ± 7.5 | 22.9 ± 1.7 | 9.9 ± 2.8 | 132 ± 11 | 154 ± 6 | 3.5 ± 0.2 | 0.8 ± 0.0 | 0.5 ± 0.1 | 4.8 ± 0.3 | 5.7 ± 0.1 | 23.8 ± 0.9 | 89.0 ± 4.2 | 21.4 ± 1.6 | 7.8 ± 0.5 | 118 ± 6 | 138 ± 7 | 3.7 ± 0.1 | 0.9 ± 0.1 | 0.3 ± 0.0 | Organ weight: body weight (mg/g), heart (Table 6, 7 d myocardial I-R): 5.0 ± 0.2 mg/g; Organ weight: body weight (mg/g), lung (Table 6, 7 d myocardial I-R): 5.8 ± 0.3 mg/g; Body Weight (BW, g) (48 h myocardial I-R): 27 ± 1 g; Organ weight: BW (mg/g), LV (48 h myocardial I-R): 3.5 ± 0.2 mg/g; Organ weight: BW (mg/g), RV (48 h myocardial I-R): 0.8 ± 0.0 mg/g; Organ weight: BW (mg/g), atria (48 h myocardial I-R): 0.5 ± 0.1 mg/g; Organ weight: BW (mg/g), heart (48 h myocardial I-R): 4.8 ± 0.3 mg/g; Organ weight: BW (mg/g), lung (48 h myocardial I-R): 5.7 ± 0.1 mg/g; BW (7 days myocardial I-R): 24 ± 1 g; Organ weight: BW (mg/g), LV (7 days myocardial I-R): 3.7 ± 0.1 mg/g; Organ weight: BW (mg/g), RV (7 days myocardial I-R): 0.9 ± 0.1 mg/g; Organ weight: BW (mg/g), atria (7 days myocardial I-R): 0.3 ± 0.0 mg/g; Organ weight: BW (mg/g), heart (7 days myocardial I-R): 5.0 ± 0.2 mg/g; Organ weight: BW (mg/g), lung (7 days myocardial I-R): 5.8 ± 0.3 mg/g; Effect on total heart weight and LV weight normalized to body weight: not; Effect on total heart weight and LV weight normalized to body weight (listed as Cmpd43): not shared
Ac2-26: Annexin-A1 N-terminal peptide, peptide ANX-A1 mimetic (Ac-AMVSEFLKQAWFIENEEQEYVQTVK; UniProt P04083 2-26, looked up, fragment) | 28.2 ± 1.0 | 109.8 ± 5.5 | 24.3 ± 0.9 | 10.1 ± 0.7 | 144 ± 6 | 145 ± 9 | 3.8 ± 0.2 | 0.8 ± 0.0 | 0.3 ± 0.0 | 5.0 ± 0.2 | 5.0 ± 0.3 | 25.6 ± 1.0 | 102.9 ± 6.5 | 17.8 ± 2.4 | 8.3 ± 1.0 | 129 ± 10 | 147 ± 7 | 4.0 ± 0.2 | 0.7 ± 0.1 | 0.3 ± 0.0 | Organ weight: body weight (mg/g), heart (Table 6, 7 d myocardial I-R): 5.0 ± 0.2 mg/g; Organ weight: body weight (mg/g), lung (Table 6, 7 d myocardial I-R): 5.7 ± 0.2 mg/g; Heart weight normalized to body weight versus sham: significantly increased; Effect on total heart weight and LV weight normalized to body weight: not

Source: US10328075B2, “Method of treatment and compounds for use therein” (Baker Heart and Diabetes Institute, priority 2015, dated 2019)
